# Reference: US8299089B2, “Multi-arm polymeric conjugates of 7-ethyl-10-hydroxycamptothecin for treatment of breast, colorectal, pancreatic, ovarian and lung cancers” (priority 2006, dated 2012)
# What was measured:
# Colo 205 = experiment: In vitro cytotoxicity, MTS assay, Colo 205; type: cell-based; settings: Table 2; Colo 205, 72 hours; Compound 9 in 7-ethyl-10-hydroxycamptothecin equivalents; average ± SD (n = 3)
# Protocol: (§1) In Table 2, the cytotoxicity (μM of each compound that results in an IC50) provides an indication of the in vitro anti-tumor potency of each compound. This study was used to determine the effect of PEGylation of four-arm PEGylated 7-ethyl-10-hydroxycamptothecin conjugates. […] Cells were incubated with drugs for 72 hours at 37° C. Following incubation, MTS dye was added and formation of a colored product (formazan) was measured at 490 nm.
# HT29 = experiment: In vitro cytotoxicity, MTS assay, HT29; type: cell-based; settings: Table 2; HT29, 72 hours; Compound 9 in 7-ethyl-10-hydroxycamptothecin equivalents; average ± SD (n = 3)
# Protocol: as §1
# A549 = experiment: In vitro cytotoxicity, MTS assay, A549; type: cell-based; settings: Table 2; A549, 72 hours; Compound 9 in 7-ethyl-10-hydroxycamptothecin equivalents; average ± SD (n = 3)
# Protocol: as §1
# PANC-1 = experiment: In vitro cytotoxicity, MTS assay, PANC-1; type: cell-based; settings: Table 2; PANC-1, 72 hours; Compound 9 in 7-ethyl-10-hydroxycamptothecin equivalents; average ± SD (n = 3)
# Protocol: as §1
# MIA PaCa-2 = experiment: In vitro cytotoxicity, MTS assay, MIA PaCa-2; type: cell-based; settings: Table 2; MIA PaCa-2, 72 hours; Compound 9 in 7-ethyl-10-hydroxycamptothecin equivalents; no SD = average of two replicates
# Protocol: as §1
# ASPC-1 = experiment: In vitro cytotoxicity, MTS assay, ASPC-1; type: cell-based; settings: Table 2; ASPC-1, 72 hours; Compound 9 in 7-ethyl-10-hydroxycamptothecin equivalents; average ± SD (n = 3)
# Protocol: as §1
# BxPC-3 = experiment: In vitro cytotoxicity, MTS assay, BxPC-3; type: cell-based; settings: Table 2; BxPC-3, 72 hours; Compound 9 in 7-ethyl-10-hydroxycamptothecin equivalents; average ± SD (n = 3)
# Protocol: as §1
# OVCAR-3 = experiment: In vitro cytotoxicity, MTS assay, OVCAR-3; type: cell-based; settings: Table 2; OVCAR-3, 72 hours; Compound 9 in 7-ethyl-10-hydroxycamptothecin equivalents; average ± SD (n = 3)
# Protocol: as §1
# OV90 = experiment: In vitro cytotoxicity, MTS assay, OV90; type: cell-based; settings: Table 2; OV90, 72 hours; Compound 9 in 7-ethyl-10-hydroxycamptothecin equivalents; average ± SD (n = 3)
# Protocol: as §1
# OVCAR-8 = experiment: In vitro cytotoxicity, MTS assay, OVCAR-8; type: cell-based; settings: Table 2; OVCAR-8, 72 hours; Compound 9 in 7-ethyl-10-hydroxycamptothecin equivalents; average ± SD (n = 3)
# Protocol: as §1
# A2780 = experiment: In vitro cytotoxicity, MTS assay, A2780; type: cell-based; settings: Table 2; A2780, 72 hours; Compound 9 in 7-ethyl-10-hydroxycamptothecin equivalents; average ± SD (n = 3)
# Protocol: as §1
# SK-0V-3 = experiment: In vitro cytotoxicity, MTS assay, SK-0V-3; type: cell-based; settings: Table 2; SK-0V-3, 72 hours; Compound 9 in 7-ethyl-10-hydroxycamptothecin equivalents; average ± SD (n = 3)
# Protocol: as §1
# [1] = tested on: human mammary carcinoma (MX-1); experiment: Single dose efficacy in MX-1 breast tumor xenograft mouse model; type: in vivo, nude mice; settings: day 31; for TGI: 20 mg/kg
# Protocol: Following at least one week of acclimation, tumors were established by implanting small tumor fragments from donor mice into a single subcutaneous site, on the left auxiliary flank region of nude mice. The tumor implantation site was observed twice weekly and measured once palpable. The tumor volume for each mouse was determined by measuring two dimensions with calipers and calculated using the formula: tumor volume=(length×width^2). […] Drugs were administered intravenously via the tail vein as a single dose of 20 mg/kg body weight of a mouse. […] Mouse weight and tumor sizes were measured at the beginning of study and on the 31st day after the single dose administration.
# The overall growth of tumors was calculated as the mean tumor volume (TV). A percent treatment over control (T/C) was also calculated. The percentage of tumor regression indicates the in vivo activity of each compound.
# [2] = tested on: human mammary carcinoma (MX-1); experiment: Multiple dose efficacy in MX-1 breast tumor xenograft mouse model; type: in vivo, nude mice; settings: i.v. 5 mg/kg/dose (q2d×6), day 31
# Protocol: The mice were dosed 5 mg/kg/day […] (every 2 days [q×2d]×6). Mouse weight and tumor sizes were monitored up to the 31st day after the first dose administration and subsequent administrations.
# [3] = tested on: human mammary, MX-1 tumors; experiment: Efficacy in small and large MX-1 breast tumor xenografted mice; type: in vivo, nude mice
# Protocol: The antitumor efficacy of 4armPEG-Gly-(7-ethyl-10-hydroxycamptothecin) was evaluated in nude mice bearing small (about 100 mm^3) or large (about 450 mm^3) established human mammary, MX-1 tumors. The antitumor therapeutic activities were determined in mice both with a single dose or multiple dose regimens.
# Four of six mice were cured as of day 54. […] All animals were sacrificed by day 20 due to excessive tumor burden.
# [4] = tested on: MiaPaCa-2 pancreatic tumor cells; experiment: Efficacy in MiaPaCa-2 pancreatic tumor xenograft mice; type: in vivo
# [5] = Stability in saline, aqueous medium and buffer; type: physicochemical; settings: effect of pH, FIG. 13
# Protocol: PEG-7-ethyl-10-hydroxycamptothecin conjugates show good stability in saline and other aqueous medium for up to 24 hours at room temperature.
# [6] = Pharmacokinetics in tumor free Balb/C mice; type: in vivo
# Source text: Pharmacokinetic analysis was done using non-compartmental analysis (WinNonlin).
# Pharmacokinetics in rats = type: in vivo; settings: rats, 3, 10 and 30 mg/kg; conjugate
# [7] = tested on: panel of cancer cell lines; experiment: In vitro cytotoxicity, panel of cancer cell lines (comparisons); type: cell-based
# Protocol: as §1
# PEG-(7-ethyl-10-hydroxycamptothecin) conjugates containing various amino acids are potent in vitro cytotoxicity against a panel of cancer cell lines as summarized in TABLE 3.
# [8] = tested on: HT-29 colorectal tumor cells; experiment: Efficacy in HT-29 colorectal tumor xenograft mice
substance,measurement,setting,value
^40k4arm-PEG-Gly(20)-(7-ethyl-10-hydroxycamptothecin) [Compound 9],IC50,Colo 205,1000 ± 600 nM
same,IC50,HT29,500 ± 300 nM
same,IC50,A549,2700 ± 400 nM
same,IC50,PANC-1,670 ± 140 nM
same,IC50,MIA PaCa-2,90 nM
same,IC50,ASPC-1,1600 ± 1100 nM
same,IC50,BxPC-3,240 ± 40 nM
same,IC50,OVCAR-3,300 ± 200 nM
same,IC50,OV90,600 ± 700 nM
same,IC50,OVCAR-8,500 ± 100 nM
same,IC50,A2780,200 ± 200 nM
same,IC50,SK-0V-3,900 ± 10 nM
same,Mean TV ± SD,[1]; single dose i.v. 20 mg/kg (conjugate as 7-ethyl-10-hydroxycamptothecin equivalent),7 ± 9 mm^3
same,Chg in TV ± SD,[1]; single dose i.v. 20 mg/kg,−94 ± 10%
same,Cures,[1]; single dose i.v. 20 mg/kg,100%
same,F/I,[1]; single dose i.v. 20 mg/kg,7%
same,Median TV,[1]; single dose i.v. 20 mg/kg,3 mm^3
same,Regressions,[1]; single dose i.v. 20 mg/kg,100%
same,Survival,[1]; single dose i.v. 20 mg/kg,100%
same,T/C,[1]; single dose i.v. 20 mg/kg,0.3%
same,TGI,[1]; single dose i.v. 20 mg/kg,99%
same,TGI,"[1]; single dose i.v. 20 mg/kg, listed as 4armPEG-Gly-(7-ethyl-10-hydroxycamptothecin)",~100%
same,Chg in TV ± SD,[2],−91 ± 10%
same,Cures,[2],100%
same,F/I,[2],14%
same,Mean TV ± SD,[2],12 ± 18 mm^3
same,Median TV,[2],6.6 mm^3
same,Regressions,[2],100%
same,Survival,[2],100%
same,T/C,[2],0.8%
same,TGI,[2],99%
same,effect on body weight,"[3]; given at the MTD, for the duration of the treatment",did not significantly decrease the body weight
same,TGI,"[3]; large tumors (about 450 mm^3), single MTD 30 mg/kg",96%
same,mice cured,"[3]; large tumors, multiple doses 10 mg/kg q2d×5, as of day 54",five of six
same,TGI,"[3]; large tumors, multiple doses at MTD 10 mg/kg q2d×5",96%
same,mice cured,"[3]; large tumors, single MTD 30 mg/kg, as of day 54",Four of six
same,TGI,"[3]; small tumors (about 100 mm^3), multiple doses 20 mg/kg q2d×5, as of day 31",96%
same,TGI,"[3]; small tumors (about 100 mm^3), single dose 20 mg/kg",100%
same,TGI,[4]; multiple doses i.v. (10 mg/kg/dose for five days; CPT-11 also 40 mg/kg/dose),95%
same,TGI,[4]; single dose i.v. (30 mg/kg; CPT-11 also 80 mg/kg),71%
same,rate of 7-ethyl-10-hydroxycamptothecin release,[5],increases with increased pH
same,terminal elimination half-life,[6]; for 7-ethyl-10-hydroxycamptothecin,18 to 26 h
same,terminal elimination half-life,[6]; for the conjugate,18 to 22 h
same,elimination half life,Pharmacokinetics in rats,12 to 18 h
same,in vitro inhibition compared with CPT-11,[7]; all tested tumor cells,much higher in vitro inhibition
same,in vitro inhibition compared with native 7-ethyl-10-hydroxycamptothecin,[7]; tested tumor cells except for HT29,significantly higher in vitro inhibition
same,effect on body weight,[8]; during the treatment,did not significantly decrease the body of weight
same,therapeutic efficacy,"[8]; i.v. 10 mg/kg/dose for five days, days 4-22",significant therapeutic efficacy compared to that of CPT-11
same,anti-tumor activity,"[8]; single dose i.v. 30 mg/kg, days 4-22",significant anti-tumor activity
